Entries after “also recorded” stand apart in the source; their conditions may differ.
Legend:
[1] = system: Raw 264.7 murine macrophages; test: IFN-stimulated macrophages in PEGDA hydrogels, in vitro mimic of intra-articular injection; type: cell-based
Description: Referring now to FIG. 5A, an in vitro experiment was designed to mimic an intra-articular injection of potassium osmolytes consistent with the embodiments described above. Poly(ethylene glycol) diacrylate hydrogels encapsulated with proinflammatory interferon-gamma (IFN)-stimulated macrophages (M(IFN)s) were prepared. M(IFN)s were cultured for 5 days in the continued presence of IFN, with 80 mM K+ applied only during the first day and then removed. Other IA injection formulations—human mesenchymal stem cells (MSCs) and methylprednisolone acetate (MPA)—were also included to gain a sense of efficacy and benchmark against current OA treatments.
The PEGDA hydrogel (˜50 kPa stiffness) was provided at the bottom of the culture well to create a surface that more closely matches the stiffness of articular cartilage (aggregate modulus ˜500 kPa) than traditional plastic 2D surfaces (˜1×10^6 kPa). MSC behavior is known to respond to substrate stiffness. Assessments for treatment efficacy included cell lysate levels of several proinflammatory markers, anti-inflammatory markers, and the ratio between anti/proinflammatory profiles.
(§1) Raw 264.7 murine macrophages (a cell line) were thawed and expanded in regular growth medium: high-glucose Dulbecco's modified Eagle's medium (DMEM; Corning) supplemented with 10% fetal bovine serum (FBS; Hyclone, Atlanta Biologicals, Inc.). Primary human OACs (Cell Applications, Inc.) were expanded in chondrogenic growth media for four passages, transitioned into regular growth medium for 1 passage, and utilized at passage 5.
Aliquots ([…]; 1×10^6 cells per construct) of the cell/polymer suspension were dispensed into the wells of a 48-well plate (Corning) and cured by exposure to long-wave UV light (˜10 mW/cm^2) for 6 min. […]
Referring now to FIGS. 5B and 5C, relative protein production of proinflammatory and anti-inflammatory molecules and the ratio between anti/proinflammatory profiles in Raw 264.7 macrophages were determined after 5 days in culture. […]

Primary human OACs = test: Inflammatory protein production in osteoarthritic chondrocytes after short-term K+ treatment; type: cell-based
From the text: as §1
Referring now to FIGS. 5B and 5C, relative protein production of proinflammatory and anti-inflammatory molecules and the ratio between anti/proinflammatory profiles in Raw 264.7 macrophages were determined after 5 days in culture. “*” denotes a significant difference relative to IFN controls. “#” denotes a significant difference relative to 24-h 80 mM K^+ gluconate. “+” denotes a significant difference relative to 24-h MSCs.

## O=C([O-])[C@H](O)[C@@H](O)[C@H](O)[C@H](O)CO.[K+] [K+ gluconate, potassium gluconate]
[1]; 80 mM K+ applied during the first day only, 5 days in culture in continued presence of IFN, relative to IFN controls
  anti/proinflammatory cytokine ratio (relative protein production): significantly enhanced
[1]; 80 mM, M(IFN)s
  macrophage polarization: toward an anti-inflammatory/proresolving phenotype
[1]; comparison between 40 and 80-mM treatments
  anti/proinflammatory profile, 40 mM versus 80 mM treatment: not significantly different
Primary human OACs
  IL-8 production: extended benefit
  MCP-1 production: extended benefit
Primary human OACs; listed as K^+
  MMP-13 production: extended benefit; also recorded: reduced production

Reference: US20220347139A1, “METHOD OF TREATMENT VIA INTRA-ARTICULAR APPLICATION OF POTASSIUM” (Rensselaer Polytechnic Institute, priority 2018, published 2022)
